Where “and” joins values, the source holds several entries; their conditions need not be identical. Equal entries are not always repeated.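 Tested at 5 concentrations; 48 h exposure; 96-well plates; endpoints linearly interpolated, else capped at highest concentration. GI50 is the concentration that inhibits growth by half.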 Calls of active or inactive are those of the source. Cut-off read from the data, not from the text of the source: active = GI50 up to about 1.1 µM and inactive = higher.
Columns and labels:
Test in all cases: NCI anticancer screen, dose series, 48 h
786-0 = test system: 786-0
A498 = test system: A498
A549 = test system: A549
ACHN = test system: ACHN
CAKI-1 = test system: CAKI-1
CCRF-CEM = test system: CCRF-CEM
COLO 205 = test system: COLO 205
DLD-1 = test system: DLD-1
DMS-114 = test system: DMS-114
DMS-273 = test system: DMS-273
EKVX = test system: EKVX
HCC 2998 = test system: HCC 2998
HCT-116 = test system: HCT-116
HCT-15 = test system: HCT-15
HL-60 = test system: HL-60
HOP-18 = test system: HOP-18
HOP-62 = test system: HOP-62
HOP-92 = test system: HOP-92
HT-29 = test system: HT-29
IGROV-1 = test system: IGROV-1
K562 = test system: K562
KM-20L2 = test system: KM-20L2
KM12 = test system: KM12
LOX IMVI = test system: LOX IMVI
LXFL 529 = test system: LXFL 529
M14 = test system: M14
M19-MEL = test system: M19-MEL
MOLT-4 = test system: MOLT-4
Malme-3M = test system: Malme-3M
NCI-H23 = test system: NCI-H23
NCI-H460 = test system: NCI-H460
OVCAR-3 = test system: OVCAR-3
OVCAR-4 = test system: OVCAR-4
OVCAR-5 = test system: OVCAR-5
OVCAR-8 = test system: OVCAR-8
RPMI-8226 = test system: RPMI-8226
RXF 393 = test system: RXF 393
SF-268 = test system: SF-268
SF-295 = test system: SF-295
SF-539 = test system: SF-539
SK-MEL-2 = test system: SK-MEL-2
SK-MEL-5 = test system: SK-MEL-5
SK-OV-3 = test system: SK-OV-3
SN12C = test system: SN12C
SNB-19 = test system: SNB-19
SNB-75 = test system: SNB-75
SNB-78 = test system: SNB-78
SW-620 = test system: SW-620
TK-10 = test system: TK-10
U-251 = test system: U-251
UACC-257 = test system: UACC-257
UACC-62 = test system: UACC-62
UO-31 = test system: UO-31
SK-MEL-28 = test system: SK-MEL-28
XF498 = test system: XF498
NCI-H226 = test system: NCI-H226
NCI-H522 = test system: NCI-H522

`COc1ccc(C=O)cc1O[Si](C)(C)C(C)(C)C` was tested, and the GI50 (786-0) was > 100 µM (inactive), the GI50 (A498) was > 100 µM (inactive) and the GI50 (A549) was > 100 µM (inactive). For the same molecule, the GI50 (ACHN) was > 100 µM (inactive), the GI50 (CAKI-1) was > 100 µM (inactive) and the GI50 (CCRF-CEM) was > 100 µM (inactive). For the same molecule, the GI50 (COLO 205) was > 100 µM (inactive), the GI50 (DLD-1) was > 100 µM (inactive) and the GI50 (DMS-114) was > 100 µM (inactive). The GI50 (DMS-273) was > 100 µM (inactive), the GI50 (EKVX) was > 100 µM (inactive) and the GI50 (HCC 2998) was > 100 µM (inactive). The GI50 (HCT-116) was > 100 µM (inactive), the GI50 (HCT-15) was > 100 µM and the GI50 (HL-60) was > 100 µM (inactive). For the same molecule, the GI50 (HOP-18) was 33.7 µM (inactive), the GI50 (HOP-62) was > 100 µM (inactive) and the GI50 (HOP-92) was 25.7 µM (inactive). For the same molecule, the GI50 (HT-29) was > 100 µM (inactive), the GI50 (IGROV-1) was > 100 µM (inactive) and the GI50 (K562) was > 100 µM (inactive). The GI50 (KM-20L2) was > 100 µM (inactive), the GI50 (KM12) was > 100 µM (inactive) and the GI50 (LOX IMVI) was > 100 µM (inactive). For the same molecule, the GI50 (LXFL 529) was > 100 µM (inactive), the GI50 (M14) was > 100 µM (inactive) and the GI50 (M19-MEL) was > 100 µM (inactive). The GI50 (MOLT-4) was > 100 µM (inactive), the GI50 (Malme-3M) was > 100 µM (inactive) and the GI50 (NCI-H23) was > 100 µM (inactive). For the same molecule, the GI50 (NCI-H460) was > 100 µM (inactive), the GI50 (OVCAR-3) was > 100 µM (inactive) and the GI50 (OVCAR-4) was > 100 µM (inactive). The GI50 (OVCAR-5) was > 100 µM (inactive), the GI50 (OVCAR-8) was > 100 µM (inactive) and the GI50 (RPMI-8226) was > 100 µM (inactive). For the same molecule, the GI50 (RXF 393) was > 100 µM (inactive), the GI50 (SF-268) was > 100 µM (inactive) and the GI50 (SF-295) was > 100 µM (inactive). For the same molecule, the GI50 (SF-539) was > 100 µM (inactive), the GI50 (SK-MEL-2) was > 100 µM (inactive) and the GI50 (SK-MEL-5) was > 100 µM (inactive). For the same molecule, the GI50 (SK-OV-3) was > 100 µM (inactive), the GI50 (SN12C) was > 100 µM (inactive) and the GI50 (SNB-19) was > 100 µM (inactive). The GI50 (SNB-75) was 61.5 µM (inactive), the GI50 (SNB-78) was > 100 µM (inactive) and the GI50 (SW-620) was > 100 µM (inactive). For the same molecule, the GI50 (TK-10) was > 100 µM (inactive), the GI50 (U-251) was > 100 µM (inactive) and the GI50 (UACC-257) was > 100 µM (inactive). The GI50 (UACC-62) was > 100 µM (inactive) and the GI50 (UO-31) was > 100 µM (inactive).

For `CC(=O)c1c(O)c(C)c(O)c2c1OC1=CC(=O)C(C(C)=O)C(=O)C12C` (stereo unspecified), the GI50 (Malme-3M) was 13.1 µM (inactive) and 23.7 µM (inactive), the GI50 (SK-MEL-28) was 14.3 µM (inactive) and 17.1 µM (inactive) and the GI50 (XF498) was 555 nM (active) and 422 nM (active).

In the case of `CN(C(=O)C1CC1)C1C2CN3CCC(O2)C13` (stereo unspecified), the GI50 (786-0) is reported as > 100 µM (inactive), the GI50 (A498) is reported as > 100 µM (inactive) and the GI50 (A549) is reported as > 100 µM (inactive). The GI50 (ACHN) was > 100 µM (inactive), the GI50 (CAKI-1) was > 100 µM (inactive) and the GI50 (CCRF-CEM) was > 100 µM (inactive). The GI50 (COLO 205) was > 100 µM (inactive), the GI50 (DLD-1) was > 100 µM (inactive) and the GI50 (DMS-114) was > 100 µM (inactive). The GI50 (DMS-273) was > 100 µM (inactive), the GI50 (EKVX) was > 100 µM (inactive) and the GI50 (HCC 2998) was > 100 µM (inactive). The GI50 (HCT-116) was > 100 µM (inactive), the GI50 (HCT-15) was > 100 µM and the GI50 (HL-60) was > 100 µM (inactive). The GI50 (HOP-18) was > 100 µM (inactive), the GI50 (HOP-62) was > 100 µM (inactive) and the GI50 (HOP-92) was > 100 µM (inactive). The GI50 (HT-29) was > 100 µM (inactive), the GI50 (IGROV-1) was > 100 µM (inactive) and the GI50 (K562) was > 100 µM (inactive). For the same molecule, the GI50 (KM-20L2) was > 100 µM (inactive), the GI50 (KM12) was > 100 µM (inactive) and the GI50 (LOX IMVI) was > 100 µM (inactive). For the same molecule, the GI50 (LXFL 529) was > 100 µM (inactive), the GI50 (M14) was > 100 µM (inactive) and the GI50 (M19-MEL) was > 100 µM (inactive). The GI50 (MOLT-4) was > 100 µM (inactive), the GI50 (Malme-3M) was > 100 µM (inactive) and the GI50 (NCI-H226) was > 100 µM (inactive). For the same molecule, the GI50 (NCI-H23) was > 100 µM (inactive), the GI50 (NCI-H460) was > 100 µM (inactive) and the GI50 (NCI-H522) was > 100 µM (inactive). The GI50 (OVCAR-3) was > 100 µM (inactive), the GI50 (OVCAR-4) was > 100 µM (inactive) and the GI50 (OVCAR-5) was > 100 µM (inactive). The GI50 (RPMI-8226) was > 100 µM (inactive), the GI50 (RXF 393) was > 100 µM (inactive) and the GI50 (SF-268) was > 100 µM (inactive). The GI50 (SF-295) was > 100 µM (inactive), the GI50 (SF-539) was > 100 µM (inactive) and the GI50 (SK-MEL-28) was > 100 µM (inactive). For the same molecule, the GI50 (SK-MEL-2) was > 100 µM (inactive), the GI50 (SK-MEL-5) was > 100 µM (inactive) and the GI50 (SK-OV-3) was > 100 µM (inactive). The GI50 (SN12C) was > 100 µM (inactive), the GI50 (SNB-19) was > 100 µM (inactive) and the GI50 (SNB-75) was > 100 µM (inactive). For the same molecule, the GI50 (SNB-78) was 94.4 µM (inactive), the GI50 (SW-620) was > 100 µM (inactive) and the GI50 (TK-10) was > 100 µM (inactive). For the same molecule, the GI50 (U-251) was > 100 µM (inactive), the GI50 (UACC-257) was > 100 µM (inactive) and the GI50 (UACC-62) was > 100 µM (inactive). The GI50 (UO-31) was > 100 µM (inactive).

From ChEMBL document CHEMBL1201862, “PubChem BioAssay data set” (2004)
